These results are taken from the OPERA property sets (Mansouri et al. 2018).

What is called logP is a log measure of how a compound divides between an organic and an aqueous phase. The compound `O=C1CC(Sc2ccc3ccccc3c2)N1` (stereo not given) showed a logP of 2.64.
For `CCOC(=O)CN1C(=O)CC1Oc1ccc(C(=O)C=Cc2ccccc2)cc1` (stereo not given) the value was 3.3; for `CCOC(=O)CN1C(=O)CC1Oc1ccc2ccccc2c1` (stereo not given), 2.8; for `O=C1CC(Sc2ccc(Cl)cc2)N1` (stereo not given), 2.31.
As for `O=C1CC(Oc2ccc(-c3ccccc3)cc2)N1` (stereo not given), the logP stood at 2.61.
The compound `CC(C)(C)OC(=O)CN1C(=O)CC1Oc1ccc2ccccc2c1` (stereo not given) showed a logP of 3.6.
For `CCOC(=O)CN1C(=O)CC1Oc1ccc(C(=O)c2ccccc2)cc1` (stereo not given) the value was 3; for `O=C1CC(Oc2ccc3ccccc3c2)N1` (stereo not given), 2.29.
In the case of `O=C1CC(Oc2ccc(C(=O)c3ccccc3)cc2)N1` (stereo not given), the logP was 2.14.
Turning to `O=C1CC(Oc2ccc(C(=O)C=Cc3ccccc3)cc2)N1` (stereo not given), the logP was 2.56.
To `CCOC(=O)CN1C(=O)CC1Sc1ccc2ccccc2c1` (stereo not given) belongs 3.4; to `O=C1CC(Oc2ccccc2C(=O)c2ccccc2)N1` (stereo not given), 1.83.
Compound `O=C1CC(Sc2ccccc2C(=O)OCc2ccccc2)N1` (stereo not given) gave a logP of 2.62.
The compound `O=C1CC(Oc2cccc(C(=O)OCc3ccccc3)c2)N1` (stereo not given) showed a logP of 2.83.
The compound `O=C1CC(Oc2cccc3ccccc23)N1` (stereo not given) showed a logP of 2.66.
